According to patent US9611252B2 (LifeSci Pharmaceuticals, Inc., priority 2013, dated 2017):

target: human Plasma Kallikrein (Homo sapiens (Human), UniProt P03952); assay: In vitro enzyme inhibition of human plasma kallikrein (PFR-AMC cleavage); format: biochemical; settings: human plasma kallikrein, Pro-Phe-Arg-AMC substrate, 37° C.; read-out: hPK IC50
Procedure, shortened: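 Compound pre-incubated with human plasma kallikrein 5 min at 37° C in 50 mM Tris-HCl pH 7.5, 150 mM NaCl, 0.01% Triton X-100. Reaction started with PFR-AMC, cleavage read kinetically at 37° C every 43 s for 1 h.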

human Plasma Kallikrein, sequence (P03952 20-638): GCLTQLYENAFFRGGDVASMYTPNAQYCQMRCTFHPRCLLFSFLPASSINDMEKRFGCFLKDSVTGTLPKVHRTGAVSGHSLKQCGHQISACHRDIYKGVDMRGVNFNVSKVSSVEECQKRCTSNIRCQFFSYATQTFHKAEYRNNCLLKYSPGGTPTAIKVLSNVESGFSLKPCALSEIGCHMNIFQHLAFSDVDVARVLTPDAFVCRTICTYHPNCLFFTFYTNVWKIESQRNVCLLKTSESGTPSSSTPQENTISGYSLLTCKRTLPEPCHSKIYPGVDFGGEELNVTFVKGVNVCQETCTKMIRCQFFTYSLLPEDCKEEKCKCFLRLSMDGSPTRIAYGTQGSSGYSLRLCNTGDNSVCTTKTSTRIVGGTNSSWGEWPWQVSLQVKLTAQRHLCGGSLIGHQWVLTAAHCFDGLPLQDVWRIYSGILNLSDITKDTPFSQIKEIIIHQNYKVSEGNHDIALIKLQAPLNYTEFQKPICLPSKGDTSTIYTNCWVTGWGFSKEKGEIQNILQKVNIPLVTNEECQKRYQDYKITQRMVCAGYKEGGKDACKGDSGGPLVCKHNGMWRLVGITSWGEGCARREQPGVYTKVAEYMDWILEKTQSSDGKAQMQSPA

SMILES	IC50 [nM]
Cc1cc(N)nc(C)c1CNC(=O)c1ccnc(Cn2cc3cc(Cl)ccc3n2)c1 [Example 106, N-((6-amino-2,4-dimethylpyridin-3-yl)methyl)-2-((5-chloro-2H-indazol-2-yl)methyl)isonicotinamide]	< 100
Cc1nc(N)c(C(N)=O)cc1CNC(=O)c1ccnc(Cc2ccc3ncc(Cl)cc3c2)c1 [Example 27, 2-amino-5-((2-((3-chloroquinolin-6-yl)methyl)isonicotinamido)methyl)-6-methylnicotinamide]	> 10000
N#Cc1cc(Cc2cc(C(=O)NCc3cc4cc[nH]c4cc3F)ccn2)cc2cc(Cl)cnc12 [Example 52, 2-((3-chloro-8-cyanoquinolin-6-yl)methyl)-N-((6-fluoro-1H-indol-5-yl)methyl)isonicotinamide]	< 100
CNc1ccc(CNC(=O)c2ccnc(Cc3ccc4ncc(Cl)cc4c3)c2)c(C)n1 [Example 42, 2-((3-chloroquinolin-6-yl)methyl)-N-((2-methyl-6-(methylamino)pyridin-3-yl)methyl)isonicotinamide]	100 to 1000
O=C(NCc1cc2cc[nH]c2cc1F)c1ccnc(Cc2ccc3ncc(Cl)cc3c2)c1 [Example 41, 2-(3-chloro-quinolin-6-ylmethyl)-N-(6-fluoro-1H-indol-5-ylmethyl)-isonicotinamide]	< 100
Cc1cc(N)ncc1CNC(=O)c1ccnc(Cn2cc3cc(Cl)ccc3cc2=O)c1 [Example 85, N-((6-amino-4-methylpyridin-3-yl)methyl)-2-((7-chloro-3-oxoisoquinolin-2(3H)-yl)methyl)isonicotinamide]	100 to 1000
Cc1nc(N)c(Cl)cc1CNC(=O)c1ccnc(Cc2ccc3ncc(Cl)cc3c2)c1 [Example 28, N-((6-amino-5-chloro-2-methylpyridin-3-yl)methyl)-2-((3-chloroquinolin-6-yl)methyl)isonicotinamide]	1000 to 10000
O=C(NCc1cc2cn[nH]c2cc1F)c1ccnc(Cc2ccc3ncc(Cl)cc3c2)c1 [Example 32, 2-(3-chloro-quinolin-6-ylmethyl)-N-(6-fluoro-1H-indazol-5-ylmethyl)-isonicotinamide]	1000 to 10000
N#Cc1cc(Cc2cc(C(=O)NCc3ccc4[nH]cc(Cl)c4c3F)ccn2)cc2cc(Cl)cnc12 [Example 51, N-((3-chloro-4-fluoro-1H-indol-5-yl)methyl)-2-((3-chloro-8-cyanoquinolin-6-yl)methyl)isonicotinamide]	< 100
Cc1cc(N)nc(C)c1CNC(=O)c1ccnc(Cc2ccc3[nH]cc(C)c3c2)c1 [Example 25, N-((6-amino-2,4-dimethylpyridin-3-yl)methyl)-2-((3-methyl-1H-indol-5-yl)methyl)isonicotinamide]	100 to 1000
Cc1cc(N)nc(C)c1CNC(=O)c1ccnc(Cn2ncc3cc(Cl)ccc32)c1 [Example 105, N-((6-amino-2,4-dimethylpyridin-3-yl)methyl)-2-((5-chloro-1H-indazol-1-yl)methyl)isonicotinamide]	< 100
Cc1cc(N)nc(C)c1CNC(=O)c1ccnc(Cc2cc(CO)c3ncc(Cl)cc3c2)c1 [Example 94, N-((6-amino-2,4-dimethylpyridin-3-yl)methyl)-2-((3-chloro-8-(hydroxymethyl)quinolin-6-yl)methyl)isonicotinamide]	< 100
N#Cc1cc(Cc2cc(C(=O)NCc3cnc4[nH]cc(Cl)c4c3)ccn2)cc2cc(Cl)cnc12 [Example 55, 2-(3-chloro-8-cyano-quinolin-6-ylmethyl)-N-(3-chloro-1H-pyrrolo[2,3-b]pyridin-5-ylmethyl)-isonicotinamide]	< 100
CC(=O)NCc1ccc2cc(Cc3cc(C(=O)NCc4c(C)cc(N)nc4C)ccn3)ccc2n1 [Example 11, 2-[2-(acetylamino-methyl)-quinolin-6-ylmethyl]-N-(6-amino-2,4-dimethyl-pyridin-3-ylmethyl)-isonicotinamide]	100 to 1000
CS(=O)(=O)c1ccc2ncc(Cc3cc(C(=O)NCc4cc5c(Cl)c[nH]c5cc4F)ccn3)cc2c1 [Example 12, N-((3-chloro-6-fluoro-1H-indol-5-yl)methyl)-2-((6-(methylsulfonyl)quinolin-3-yl)methyl)isonicotinamide]	< 100

Results, then the molecule that gave them:

IC50 [nM]	SMILES
100 to 1000	NC(=O)c1ccc2cc(Cc3cc(C(=O)NCc4ccc5c(N)nccc5c4)ccn3)ccc2n1 [Example 4]
100 to 1000	Nc1nccc2cc(CNC(=O)c3ccnc(Cc4cnc5ccc(F)cc5n4)c3)ccc12 [Example 8, N-((1-aminoisoquinolin-6-yl)methyl)-2-((7-fluoroquinoxalin-2-yl)methyl)isonicotinamide]
< 100	Cc1cnc2c(C#N)cc(Cc3cc(C(=O)NCc4n[nH]c5ccc(Cl)cc45)ccn3)cc2c1 [Example 75, N-((5-chloro-1H-indazol-3-yl)methyl)-2-((8-cyano-3-methylquinolin-6-yl)methyl)isonicotinamide]
< 100	Cc1cc(N)nc(C)c1CNC(=O)c1ccnc(Cc2ccc3ncc(C#N)cc3c2)c1 [Example 7, N-((6-amino-2,4-dimethylpyridin-3-yl)methyl)-2-((3-cyanoquinolin-6-yl)methyl)isonicotinamide]
< 100	Cc1cc(N)nc(C)c1CNC(=O)c1ccnc(Cc2ccc3nc(C#N)ccc3c2)c1 [Example 131, N-(6-amino-2,4-dimethyl-pyridin-3-ylmethyl)-2-(2-cyano-quinolin-6-ylmethyl)-isonicotinamide]
< 100	N#Cc1ccnc2ccc(Cc3cc(C(=O)NCc4ccc5c(N)nccc5c4)ccn3)cc12 [Example 136, N-((1-aminoisoquinolin-6-yl)methyl)-2-((4-cyanoquinolin-6-yl)methyl)isonicotinamide]
< 100	Cc1cc(N)ncc1CNC(=O)c1ccnc(Cc2ccc3ncc(Cl)cc3c2)c1 [Example 29, N-((6-amino-4-methylpyridin-3-yl)methyl)-2-((3-chloroquinolin-6-yl)methyl)isonicotinamide]
< 100	N#Cc1ccc2cc(Cc3cc(C(=O)NCc4ccc5c(N)nccc5c4)ccn3)ccc2n1 [Example 3, N-((1-aminoisoquinolin-6-yl)methyl)-2-((2-cyanoquinolin-6-yl)methyl)isonicotinamide]
< 100	Cc1nc(N)ccc1CNC(=O)c1ccnc(Cc2cc(CO)c3ncc(Cl)cc3c2)c1 [Example 97, N-((6-amino-2-methylpyridin-3-yl)methyl)-2-((3-chloro-8-(hydroxymethyl)quinolin-6-yl)methyl)isonicotinamide]
< 100	Cc1nc(N)ccc1CNC(=O)c1ccnc(Cc2ccc3ncc(Cl)cc3c2F)c1 [Example 103, N-((6-amino-2-methylpyridin-3-yl)methyl)-2-((3-chloro-5-fluoroquinolin-6-yl)methyl)isonicotinamide]
< 100	Nc1nccc2cc(CNC(=O)c3ccnc(Cc4cnc5cc(Cl)ccc5c4)c3)ccc12 [Example 139, N-((1-aminoisoquinolin-6-yl)methyl)-2-((7-chloroquinolin-3-yl)methyl)isonicotinamide]
